Conditions: in all of xylene, toluene, chlorobenzene, chloroform or tetrahydrofuran
Text: By “solubilizing substituent” we mean a substituent which renders the triazine sufficiently soluble in organic solvents that it can be solution processed to fabricate an opto-electrical device by, for example, ink-jet printing or spin-coating. […] Organic solvents suitable for opto-electrical device fabrication include xylene, toluene, chlorobenzene, chloroform or tetrahydrofuran but preferably toluene or xylene.

c1ccc(-c2ccc(-c3nc(-c4ccc(-c5ccccc5)cc4)nc(-c4ccc(-c5ccccc5)cc4)n3)cc2)cc1 [2,4,6-tris(biphenyl)-1,3,5-triazine]
solubility: < 5000 µg/mL

Reference: patent publication US20100013377A1, “Compounds for use in Opto-Electrical Devices” (CDT OXFORD LIMITED, priority 2006, published 2010)
